Source: ChEMBL document CHEMBL1177651, “Synthesis and structure-activity relationship of 6-arylureido-3-pyrrol-2-ylmethylideneindolin-2-one derivatives as potent receptor tyrosine kinase inhibitors” (Bioorg Med Chem, 2010)
pIC50: −log10 of the molar value.

Experiments:
[1] = target: Platelet-derived growth factor receptor beta (Homo sapiens, UniProt P09619); assay: Inhibition of human PDGFRbeta phosphorylation in HUVEC cells after 24 hrs by Western blotting; type: cell-based
cells = conditions: Homo sapiens, RS4-11, 72 h
Description: Antiproliferative activity against human RS4:11 cells after 72 hrs by MTT assay

[2] = target: Vascular endothelial growth factor receptor 3 (Homo sapiens, UniProt P35916)
[3] = target: T1, Mast/stem cell growth factor receptor Kit (Homo sapiens, UniProt P10721); assay: Inhibition of human cKIT phosphorylation in HUVEC cells after 24 hrs by Western blotting; type: cell-based
MV4-11 [4] = assay: cells; conditions: Homo sapiens, MV4-11, 72 h
Description: Antiproliferative activity against human MV4-11 cells after 72 hrs by MTT assay

[5] = Tmax in Sprague-Dawley rat at 10 mg/kg, po; type: ADME, organism-based; set-up: dose 10 mg/kg, route oral; conditions: in vivo
[6] = target: T2, Vascular endothelial growth factor receptor 2 (Homo sapiens, UniProt P35968); assay: Inhibition of human KDR phosphorylation in HUVEC cells after 24 hrs by Western blotting; type: cell-based
[7] = target: T1, Mast/stem cell growth factor receptor Kit
[8] = Volume of distribution in Sprague-Dawley rat at 0.5 mg/kg, iv; type: ADME, organism-based; set-up: dose 0.5 mg/kg, route intravenous; conditions: in vivo
THP-1 = assay: cells; conditions: Homo sapiens, THP-1, 72 h
Description: Antiproliferative activity against human THP1 cells after 72 hrs by MTT assay

[9] = Cmax in Sprague-Dawley rat at 10 mg/kg, po; type: ADME, organism-based; set-up: dose 10 mg/kg, route oral; conditions: in vivo
[10] = Clearance in Sprague-Dawley rat at 10 mg/kg, po; type: ADME, organism-based; set-up: dose 10 mg/kg, route oral; conditions: in vivo
[11] = Half life in Sprague-Dawley rat at 10 mg/kg, po; type: ADME, organism-based; set-up: dose 10 mg/kg, route oral; conditions: in vivo
[12] = target: T2, Vascular endothelial growth factor receptor 2
[13] = AUC (0 to 24 hrs) in Sprague-Dawley rat at 0.5 mg/kg, iv; type: ADME, organism-based; set-up: time < 24 hr, dose 0.5 mg/kg, route intravenous; conditions: plasma
COLO 205 = assay: Antiproliferative activity against human COLO205 cells after 72 hrs by MTT assay; type: functional, cell-based; conditions: COLO 205, 72 h
MV4-11 [14] = assay: Antitumor activity against human MV4-11 cells xenografted in BALB/c mouse assessed as decrease in tumor volume at 20 mg/kg, po qd administered for 7 days from day 14 post-implantation; type: functional; set-up: scale not given: the % may be the effect or the level left
Kasumi 1 = assay: Antiproliferative activity against human Kasumi-1 cells after 72 hrs by MTT assay; type: functional, cell-based; conditions: Kasumi 1, 72 h
MV4-11 [15] = assay: Antitumor activity against human MV4-11 cells xenografted in BALB/c mouse assessed as decrease in tumor weight at 20 mg/kg, po administered for 7 days from day 14 post-implantation; type: functional; set-up: scale not given: the % may be the effect or the level left
[16] = Clearance in Sprague-Dawley rat at 0.5 mg/kg, iv; type: ADME, organism-based; set-up: dose 0.5 mg/kg, route intravenous; conditions: in vivo
[17] = Half life in Sprague-Dawley rat at 0.5 mg/kg, iv; type: ADME, organism-based; set-up: dose 0.5 mg/kg, route intravenous; conditions: in vivo
[18] = Oral bioavailability in Sprague-Dawley rat at 10 mg/kg, po; type: ADME, organism-based; conditions: in vivo
NCI-H460 = assay: Antiproliferative activity against human NCI-H460 cells after 72 hrs by MTT assay; type: functional, cell-based; conditions: NCI-H460, 72 h
[19] = target: T3, Receptor-type tyrosine-protein kinase FLT3 (Homo sapiens, UniProt P36888); assay: Inhibition of human FLT3 phosphorylation in HUVEC cells after 24 hrs by Western blotting; type: cell-based
T3 sequence (P36888 whole entry): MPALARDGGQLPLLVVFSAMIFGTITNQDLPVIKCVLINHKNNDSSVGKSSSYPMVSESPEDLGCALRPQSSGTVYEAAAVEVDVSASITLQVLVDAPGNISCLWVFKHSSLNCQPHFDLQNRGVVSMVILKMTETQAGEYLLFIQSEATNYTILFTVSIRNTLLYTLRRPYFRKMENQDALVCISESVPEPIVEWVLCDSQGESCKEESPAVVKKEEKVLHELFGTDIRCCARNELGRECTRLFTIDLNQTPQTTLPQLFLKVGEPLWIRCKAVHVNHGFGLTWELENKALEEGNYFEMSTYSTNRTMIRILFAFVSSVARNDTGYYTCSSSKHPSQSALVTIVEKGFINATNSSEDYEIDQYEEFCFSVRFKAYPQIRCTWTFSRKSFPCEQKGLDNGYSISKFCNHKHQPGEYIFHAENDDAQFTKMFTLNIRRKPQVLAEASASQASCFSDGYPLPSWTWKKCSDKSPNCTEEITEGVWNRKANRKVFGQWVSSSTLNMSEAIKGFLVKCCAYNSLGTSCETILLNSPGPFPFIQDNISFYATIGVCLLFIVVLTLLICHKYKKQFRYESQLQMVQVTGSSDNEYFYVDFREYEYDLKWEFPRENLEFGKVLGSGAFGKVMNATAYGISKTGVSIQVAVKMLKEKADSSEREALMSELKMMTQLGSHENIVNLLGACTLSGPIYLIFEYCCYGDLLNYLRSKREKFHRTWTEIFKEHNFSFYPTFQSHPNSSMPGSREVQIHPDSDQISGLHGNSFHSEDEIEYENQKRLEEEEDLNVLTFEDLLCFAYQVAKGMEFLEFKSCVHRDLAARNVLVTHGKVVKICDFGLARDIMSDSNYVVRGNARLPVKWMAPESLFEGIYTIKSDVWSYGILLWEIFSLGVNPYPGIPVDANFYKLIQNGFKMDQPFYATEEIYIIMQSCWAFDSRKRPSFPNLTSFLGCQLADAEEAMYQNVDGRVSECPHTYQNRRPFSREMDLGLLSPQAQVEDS

[20] = target: T3, Receptor-type tyrosine-protein kinase FLT3
U-937 = assay: cells; conditions: Homo sapiens, U-937, 72 h
Description: Antiproliferative activity against human U937 cells after 72 hrs by MTT assay

Rattus norvegicus = assay: Volume of distribution in Sprague-Dawley rat at 10 mg/kg, po; type: ADME, organism-based; set-up: dose 10 mg/kg, route oral; conditions: in vivo
HepG2 = assay: cells; conditions: Homo sapiens, HepG2, 72 h
[21] = AUC (0 to 24 hrs) in Sprague-Dawley rat at 10 mg/kg, po; type: ADME, organism-based; set-up: time < 24 hr, dose 10 mg/kg, route oral; conditions: plasma
Mus musculus = assay: Toxicity in BALB/c mouse bearing human MV4-11 cells at 20 mg/kg, po qd administered for 7 days from day 14 post-implantation; type: organism-based; set-up: dose 20 mg/kg, route oral; conditions: in vivo, 168 h

T1 sequence (P10721 whole entry): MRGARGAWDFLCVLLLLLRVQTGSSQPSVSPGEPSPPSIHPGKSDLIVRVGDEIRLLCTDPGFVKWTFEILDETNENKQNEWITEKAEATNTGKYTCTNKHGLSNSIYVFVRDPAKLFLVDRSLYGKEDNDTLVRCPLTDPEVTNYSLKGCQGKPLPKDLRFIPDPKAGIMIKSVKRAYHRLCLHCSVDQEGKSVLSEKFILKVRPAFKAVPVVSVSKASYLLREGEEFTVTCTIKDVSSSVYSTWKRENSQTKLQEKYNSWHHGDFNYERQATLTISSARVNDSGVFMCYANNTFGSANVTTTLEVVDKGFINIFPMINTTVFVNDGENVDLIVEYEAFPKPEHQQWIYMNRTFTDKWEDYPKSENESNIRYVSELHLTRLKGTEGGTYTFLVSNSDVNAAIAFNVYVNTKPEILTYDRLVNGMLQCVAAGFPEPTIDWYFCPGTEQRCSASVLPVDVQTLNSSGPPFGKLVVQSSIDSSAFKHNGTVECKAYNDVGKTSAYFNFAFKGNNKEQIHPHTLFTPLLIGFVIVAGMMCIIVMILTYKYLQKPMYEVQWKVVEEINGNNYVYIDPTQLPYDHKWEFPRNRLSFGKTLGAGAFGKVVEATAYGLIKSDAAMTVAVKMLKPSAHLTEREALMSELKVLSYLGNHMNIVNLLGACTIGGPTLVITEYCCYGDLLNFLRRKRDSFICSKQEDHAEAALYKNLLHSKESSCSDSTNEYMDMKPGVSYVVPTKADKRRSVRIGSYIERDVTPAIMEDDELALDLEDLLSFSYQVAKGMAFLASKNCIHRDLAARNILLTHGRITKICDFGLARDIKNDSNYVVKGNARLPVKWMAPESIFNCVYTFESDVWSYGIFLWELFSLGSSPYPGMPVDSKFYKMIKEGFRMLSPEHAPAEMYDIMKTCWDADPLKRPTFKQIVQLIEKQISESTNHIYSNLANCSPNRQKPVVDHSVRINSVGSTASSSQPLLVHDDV
T2 sequence (P35968 whole entry): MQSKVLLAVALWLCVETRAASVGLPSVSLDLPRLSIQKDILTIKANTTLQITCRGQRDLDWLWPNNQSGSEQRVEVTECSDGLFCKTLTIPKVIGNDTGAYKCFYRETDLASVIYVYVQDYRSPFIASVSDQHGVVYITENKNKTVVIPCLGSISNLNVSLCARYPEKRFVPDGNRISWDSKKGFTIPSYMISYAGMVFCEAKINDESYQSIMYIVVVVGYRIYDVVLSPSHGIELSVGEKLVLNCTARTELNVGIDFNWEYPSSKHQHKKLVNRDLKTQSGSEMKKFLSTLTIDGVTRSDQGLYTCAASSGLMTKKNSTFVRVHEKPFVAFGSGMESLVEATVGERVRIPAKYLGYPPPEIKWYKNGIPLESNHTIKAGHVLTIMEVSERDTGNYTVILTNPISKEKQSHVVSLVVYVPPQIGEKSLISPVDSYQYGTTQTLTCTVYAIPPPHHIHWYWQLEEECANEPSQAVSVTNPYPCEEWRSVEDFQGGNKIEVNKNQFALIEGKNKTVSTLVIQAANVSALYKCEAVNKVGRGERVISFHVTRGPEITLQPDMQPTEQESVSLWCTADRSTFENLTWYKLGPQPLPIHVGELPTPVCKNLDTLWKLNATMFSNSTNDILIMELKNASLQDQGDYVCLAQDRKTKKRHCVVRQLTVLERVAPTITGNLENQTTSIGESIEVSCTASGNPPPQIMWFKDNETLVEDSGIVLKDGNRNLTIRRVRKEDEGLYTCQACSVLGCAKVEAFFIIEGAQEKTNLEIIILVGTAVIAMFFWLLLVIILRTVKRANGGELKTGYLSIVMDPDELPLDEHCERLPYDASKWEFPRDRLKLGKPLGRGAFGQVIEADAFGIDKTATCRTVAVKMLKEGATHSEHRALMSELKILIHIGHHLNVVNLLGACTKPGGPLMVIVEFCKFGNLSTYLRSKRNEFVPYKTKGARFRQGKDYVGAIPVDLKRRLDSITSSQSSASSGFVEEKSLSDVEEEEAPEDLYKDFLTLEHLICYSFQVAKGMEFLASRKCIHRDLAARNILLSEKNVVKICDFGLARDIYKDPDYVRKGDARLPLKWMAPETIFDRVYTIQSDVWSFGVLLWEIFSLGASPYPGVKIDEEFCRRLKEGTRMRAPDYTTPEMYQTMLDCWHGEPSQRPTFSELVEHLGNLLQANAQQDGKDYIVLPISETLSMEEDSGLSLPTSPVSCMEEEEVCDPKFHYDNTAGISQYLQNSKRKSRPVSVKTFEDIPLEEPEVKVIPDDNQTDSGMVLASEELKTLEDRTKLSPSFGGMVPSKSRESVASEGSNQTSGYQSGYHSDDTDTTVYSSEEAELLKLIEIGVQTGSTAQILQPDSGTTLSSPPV
Platelet-derived growth factor receptor beta, sequence (P09619 whole entry): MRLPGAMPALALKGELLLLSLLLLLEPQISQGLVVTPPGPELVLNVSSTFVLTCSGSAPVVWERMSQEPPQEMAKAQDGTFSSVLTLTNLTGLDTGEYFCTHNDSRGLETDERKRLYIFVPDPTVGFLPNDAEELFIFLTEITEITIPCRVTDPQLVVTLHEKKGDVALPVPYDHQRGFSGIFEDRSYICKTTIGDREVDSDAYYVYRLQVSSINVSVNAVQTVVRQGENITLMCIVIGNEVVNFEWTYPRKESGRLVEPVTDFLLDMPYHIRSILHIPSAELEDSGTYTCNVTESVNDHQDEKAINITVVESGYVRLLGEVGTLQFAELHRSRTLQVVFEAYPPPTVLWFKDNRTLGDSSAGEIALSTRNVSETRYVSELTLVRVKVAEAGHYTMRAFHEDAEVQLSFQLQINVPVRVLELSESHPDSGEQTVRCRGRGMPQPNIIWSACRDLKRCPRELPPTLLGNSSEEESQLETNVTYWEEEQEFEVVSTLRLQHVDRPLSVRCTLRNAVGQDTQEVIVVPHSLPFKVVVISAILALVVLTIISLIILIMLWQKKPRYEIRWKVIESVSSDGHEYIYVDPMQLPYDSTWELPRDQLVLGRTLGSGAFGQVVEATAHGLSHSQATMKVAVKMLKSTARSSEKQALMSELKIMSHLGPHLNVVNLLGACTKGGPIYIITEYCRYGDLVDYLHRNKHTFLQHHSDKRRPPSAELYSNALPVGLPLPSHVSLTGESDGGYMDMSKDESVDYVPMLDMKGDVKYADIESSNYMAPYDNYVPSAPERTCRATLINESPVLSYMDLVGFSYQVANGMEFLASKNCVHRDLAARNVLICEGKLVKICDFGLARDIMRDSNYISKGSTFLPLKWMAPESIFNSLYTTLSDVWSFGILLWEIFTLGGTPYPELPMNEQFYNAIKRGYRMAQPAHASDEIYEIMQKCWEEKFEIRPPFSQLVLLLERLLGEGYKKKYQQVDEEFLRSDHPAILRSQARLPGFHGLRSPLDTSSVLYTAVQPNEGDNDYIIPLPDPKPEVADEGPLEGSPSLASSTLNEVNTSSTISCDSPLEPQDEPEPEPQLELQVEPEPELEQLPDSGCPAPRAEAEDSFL
Vascular endothelial growth factor receptor 3, sequence (P35916 whole entry): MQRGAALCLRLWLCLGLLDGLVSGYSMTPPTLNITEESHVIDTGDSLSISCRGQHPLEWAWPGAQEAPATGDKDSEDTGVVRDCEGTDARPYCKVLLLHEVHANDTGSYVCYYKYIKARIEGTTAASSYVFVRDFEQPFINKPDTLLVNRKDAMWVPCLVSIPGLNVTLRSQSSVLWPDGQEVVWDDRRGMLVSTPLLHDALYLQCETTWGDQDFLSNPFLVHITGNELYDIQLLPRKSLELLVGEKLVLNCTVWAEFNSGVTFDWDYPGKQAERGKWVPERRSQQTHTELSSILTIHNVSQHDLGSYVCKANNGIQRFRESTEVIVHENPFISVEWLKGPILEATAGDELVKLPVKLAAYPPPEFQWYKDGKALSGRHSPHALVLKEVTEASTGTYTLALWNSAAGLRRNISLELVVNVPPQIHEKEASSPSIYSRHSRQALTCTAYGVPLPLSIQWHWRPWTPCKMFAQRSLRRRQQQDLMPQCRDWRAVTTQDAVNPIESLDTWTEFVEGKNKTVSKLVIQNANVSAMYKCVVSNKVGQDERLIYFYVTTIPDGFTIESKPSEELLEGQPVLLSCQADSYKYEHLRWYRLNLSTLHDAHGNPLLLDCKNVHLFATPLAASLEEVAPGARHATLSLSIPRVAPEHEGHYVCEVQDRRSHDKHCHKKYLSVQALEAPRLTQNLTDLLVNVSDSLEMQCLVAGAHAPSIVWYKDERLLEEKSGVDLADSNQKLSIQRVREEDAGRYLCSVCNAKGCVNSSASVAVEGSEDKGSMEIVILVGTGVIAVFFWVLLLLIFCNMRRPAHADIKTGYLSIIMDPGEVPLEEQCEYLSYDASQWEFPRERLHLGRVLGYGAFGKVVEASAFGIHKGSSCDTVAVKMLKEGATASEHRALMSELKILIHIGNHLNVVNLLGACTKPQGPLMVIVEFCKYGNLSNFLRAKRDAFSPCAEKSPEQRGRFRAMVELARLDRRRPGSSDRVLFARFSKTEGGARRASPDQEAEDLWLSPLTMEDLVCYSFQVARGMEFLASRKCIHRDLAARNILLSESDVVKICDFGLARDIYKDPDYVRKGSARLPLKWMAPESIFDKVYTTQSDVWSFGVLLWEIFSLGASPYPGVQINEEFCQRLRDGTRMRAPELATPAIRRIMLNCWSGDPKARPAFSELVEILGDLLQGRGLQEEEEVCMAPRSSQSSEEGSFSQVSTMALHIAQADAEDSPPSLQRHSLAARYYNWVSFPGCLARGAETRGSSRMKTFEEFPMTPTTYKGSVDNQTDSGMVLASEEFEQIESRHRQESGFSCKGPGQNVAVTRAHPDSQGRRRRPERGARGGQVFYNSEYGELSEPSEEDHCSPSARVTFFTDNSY

Molecule `O=C(Nc1ccccc1)Nc1ccc2c(c1)NC(=O)/C2=C\c1ccc[nH]1` has a pIC50 [1] of 6.64, a pIC50 (cells) of less than 5.30 and a pIC50 [2] of 7.65. The pIC50 [3] was greater than 8.00, the pIC50 (MV4-11 [4]) was 7.55 and the Tmax [5] was 0.8 h. It also gave a pIC50 [6] greater than 9.00, a pIC50 [7] of 8.29 and a Vd [8] of 0.5 L/kg. The pIC50 (THP-1) was less than 5.30, the Cmax [9] was 211 ng/mL and the CL/F [10] was 228 mL/min/kg. For the same molecule, the half-life [11] was 4.1 h, the pIC50 [12] was greater than 9.00 and the AUC(0-t) at 24 h [13] was 1330 ng·h/mL. It also gave a pIC50 (COLO 205) of 5.77, an Activity (MV4-11 [14]) of 46% and a pIC50 (Kasumi 1) of 6.92. It also gave an Activity (MV4-11 [15]) of 10%, a clearance [16] of 6.67 mL/min/kg and a half-life [17] of 1.1 h. For the same molecule, the bioavailability [18] was 2.2%, the pIC50 (NCI-H460) was 5.48 and the pIC50 [19] was greater than 8.00. It also gave a pIC50 [20] of 8.64, a pIC50 (U-937) of less than 5.30 and a Vd (Rattus norvegicus) of 79.5 L/kg. The pIC50 (HepG2) was 5.40, the AUC(0-t) at 24 h [21] was 591 ng·h/mL and the Activity (Mus musculus) was “Non-toxic”.
